Reference: patent EP0908457B1, “3-(1,2-benzisothiazol- and isoxazol-5-Y1)-2,4(1H,3H)-pyrimidinedione or thione and 3-(1,2-benzisothiazol- and isoxazol-5-y1)-4(3H)-pyrimidinone or thione herbicidal agents” (BASF AKTIENGESELLSCHAFT, priority 1997, dated 1999)

How the values were obtained:
[1] = tested on: Cyperus serotinus, Rottb.; assay: Preemergence weed control under flooded paddy conditions, CYPSE (Flatsedge); assay type: in vivo; settings: preemergence, rated three to four weeks after treatment
[2] = tested on: Monochoria vaginalis, Presl.; assay: Preemergence weed control under flooded paddy conditions, MOOVA (Monochoria); assay type: in vivo; settings: preemergence, flooded paddy, rated three to four weeks after treatment
[3] = tested on: Oryza sativa, (L.) Tebonnet; assay: Rice tolerance to post-transplant applications under flooded paddy conditions (Example 187), ORYSAT (Rice, Tebonnet); settings: rated three to four weeks after treatment
Cyperus iria = assay: Preemergence weed control under flooded paddy conditions, CYPIR (Rice Flatsedge); assay type: in vivo; settings: preemergence, flooded paddy, rated three to four weeks after treatment
[4] = tested on: Echinochloa oryzoides (Ard.) Fritsch.; assay: Preemergence weed control under flooded paddy conditions, ECHORC (Watergrass (Calif.)); assay type: in vivo; settings: preemergence, flooded paddy, rated three to four weeks after treatment
Sagittaria pygmaea, L. = assay: Preemergence weed control under flooded paddy conditions, SAGPY (Arrowhead (Pygmaea)); assay type: in vivo; settings: preemergence, flooded paddy, rated three to four weeks after treatment

SMILES | CYPSE herbicidal effect rating ([1]; Rate 0.0620 kg/ha) | CYPSE herbicidal effect rating ([1]; Rate 0.2500 kg/ha) | CYPSE herbicidal effect rating ([1]; Rate 0.5000 kg/ha) | MOOVA herbicidal effect rating ([2]; Rate 0.0620 kg/ha) | MOOVA herbicidal effect rating ([2]; Rate 0.1250 kg/ha) | MOOVA herbicidal effect rating ([2]; Rate 0.2500 kg/ha) | MOOVA herbicidal effect rating ([2]; Rate 0.5000 kg/ha) | ORYSAT herbicidal effect rating ([3]; Rate 0.0620 kg/ha) | ORYSAT herbicidal effect rating ([3]; Rate 0.1250 kg/ha) | ORYSAT herbicidal effect rating ([3]; Rate 0.2500 kg/ha) | ORYSAT herbicidal effect rating ([3]; Rate 0.5000 kg/ha) | CYPIR herbicidal effect rating (Cyperus iria; Rate 0.0620 kg/ha) | CYPIR herbicidal effect rating (Cyperus iria; Rate 0.1250 kg/ha) | CYPIR herbicidal effect rating (Cyperus iria; Rate 0.2500 kg/ha) | CYPIR herbicidal effect rating (Cyperus iria; Rate 0.5000 kg/ha) | ECHORC herbicidal effect rating ([4]; Rate 0.0620 kg/ha) | ECHORC herbicidal effect rating ([4]; Rate 0.1250 kg/ha) | ECHORC herbicidal effect rating ([4]; Rate 0.2500 kg/ha) | ECHORC herbicidal effect rating ([4]; Rate 0.5000 kg/ha) | SAGPY herbicidal effect rating (Sagittaria pygmaea, L.; Rate 0.5000 kg/ha) | other results
Cc1nsc2ccc(-n3c(=O)c(Cl)c(C(F)(F)F)n(C)c3=O)cc12 [Example 271, 2,4(1H,3H)-Pyrimidinedione, 5-chloro-1-methyl-3-(3-methyl-1,2-benzisothiazol-5-yl)-6-(trifluoromethyl)-] | 0.0 | 0.0 | 0.0 | 0.0 | 4.0 | 9.0 | 9.0 | 1.0 | 2.0 | 3.0 | 0.0 | 0.0 | 0.0 | 0.0 | 0.0 | 0.0 | 0.0 | 0.0 | 0.0 | 0.0 | CYPSE herbicidal effect rating ([1]; Rate 0.1250 kg/ha): 0.0; SAGPY herbicidal effect rating (Sagittaria pygmaea, L.; Rate 0.0620 kg/ha): 0.0; SAGPY herbicidal effect rating (Sagittaria pygmaea, L.; Rate 0.1250 kg/ha): 0.0; SAGPY herbicidal effect rating (Sagittaria pygmaea, L.; Rate 0.2500 kg/ha): 0.0
COC(=O)CS(=O)(=O)Cc1nsc2ccc(-n3c(=O)cc(C(F)(F)F)n(C)c3=O)cc12 [Example 272, Acetic acid, {{{5-[3,6-dihydro-3-methyl-2,6-dioxo-4-(trifluoromethyl)-1(2H)-pyrimidinyl]-1,2-benzisothiazol-3-yl}methyl}sulfonyl}-, methyl ester] |  |  | 0.0 |  |  |  | 0.0 |  |  |  | 0.0 |  |  |  | 0.0 |  |  |  | 0.0 | 0.0 | 
Cn1c(C(F)(F)F)cc(=O)n(-c2ccc3snc(-c4ccc(OCC(=O)OC(C)(C)C)cc4)c3c2)c1=O [Example 273, Acetic acid, {p-{5-[3,6-dihydro-3-methyl-2,6-dioxo-4-(trifluoromethyl)-1(2H)-pyrimidinyl]-1,2-benzisothiazol-3-yl}phenoxy}-, tert-butyl ester] | 0.0 | 7.0 | 9.0 | 9.0 | 9.0 | 9.0 | 9.0 | 2.0 | 3.0 | 4.0 | 3.0 | 9.0 | 9.0 | 9.0 | 4.0 | 5.1 | 6.0 | 9.0 | 9.0 | 0.0 | CYPSE herbicidal effect rating ([1]; Rate 0.0320 kg/ha): 0.0; MOOVA herbicidal effect rating ([2]; Rate 0.0320 kg/ha): 9.0; ORYSAT herbicidal effect rating ([3]; Rate 0.0320 kg/ha): 0.0; CYPIR herbicidal effect rating (Cyperus iria; Rate 0.0320 kg/ha): 6.0; ECHORC herbicidal effect rating ([4]; Rate 0.0320 kg/ha): 3.9; SAGPY herbicidal effect rating (Sagittaria pygmaea, L.; Rate 0.0320 kg/ha): 0.0; SAGPY herbicidal effect rating (Sagittaria pygmaea, L.; Rate 0.0620 kg/ha): 0.0; SAGPY herbicidal effect rating (Sagittaria pygmaea, L.; Rate 0.1250 kg/ha): 0.0; SAGPY herbicidal effect rating (Sagittaria pygmaea, L.; Rate 0.2500 kg/ha): 6.0
COC(=O)COc1c(-c2nsc3ccc(-n4c(=O)cc(C(F)(F)F)n(C)c4=O)cc23)ccc(C)c1C [Example 274, Acetic acid, {{6-{5-[3,6-dihydro-3-methyl-2,6-dioxo-4-(trifluoromethyl)-1(2H)-pyrimidinyl]-1,2-benzisothiazol-3-yl}-2,3-xylyl}oxy}-, methyl ester] | 2.0 | 9.0 | 9.0 | 9.0 | 9.0 | 9.0 | 9.0 | 4.0 | 4.0 | 8.0 | 7.0 | 8.0 | 9.0 | 9.0 | 2.0 | 4.1 | 5.9 | 9.0 | 9.0 | 4.0 | CYPSE herbicidal effect rating ([1]; Rate 0.0320 kg/ha): 0.0; CYPSE herbicidal effect rating ([1]; Rate 0.1250 kg/ha): 8.0; MOOVA herbicidal effect rating ([2]; Rate 0.0320 kg/ha): 9.0; ORYSAT herbicidal effect rating ([3]; Rate 0.0320 kg/ha): 2.0; CYPIR herbicidal effect rating (Cyperus iria; Rate 0.0320 kg/ha): 7.0; ECHORC herbicidal effect rating ([4]; Rate 0.0320 kg/ha): 3.3; SAGPY herbicidal effect rating (Sagittaria pygmaea, L.; Rate 0.0320 kg/ha): 0.0; SAGPY herbicidal effect rating (Sagittaria pygmaea, L.; Rate 0.0620 kg/ha): 0.0; SAGPY herbicidal effect rating (Sagittaria pygmaea, L.; Rate 0.1250 kg/ha): 4.0; SAGPY herbicidal effect rating (Sagittaria pygmaea, L.; Rate 0.2500 kg/ha): 9.0
COC(=O)C(C)Oc1c(-c2nsc3ccc(-n4c(=O)cc(C(F)(F)F)n(C)c4=O)cc23)ccc(C)c1C (centres unmarked) [Example 275, Propionic acid, 2-{{6-{5-[3,6-dihydro-3-methyl-2,6-dioxo-4-(trifluoromethyl)-1(2H)-pyrimidinyl]-1,2-benzisothiazol-3-yl}-2,3-xylyl}oxy}-, methyl ester] | 9.0 | 9.0 | 0.0 | 9.0 | 9.0 | 9.0 | 9.0 | 0.0 | 3.0 | 4.0 | 5.0 | 4.0 | 6.0 | 7.0 | 0.0 | 3.9 | 4.1 | 9.0 | 7.0 | 0.0 | CYPSE herbicidal effect rating ([1]; Rate 0.0320 kg/ha): 9.0; CYPSE herbicidal effect rating ([1]; Rate 0.1250 kg/ha): 9.0; MOOVA herbicidal effect rating ([2]; Rate 0.0320 kg/ha): 6.0; ORYSAT herbicidal effect rating ([3]; Rate 0.0320 kg/ha): 0.0; CYPIR herbicidal effect rating (Cyperus iria; Rate 0.0320 kg/ha): 0.0; ECHORC herbicidal effect rating ([4]; Rate 0.0320 kg/ha): 3.7; SAGPY herbicidal effect rating (Sagittaria pygmaea, L.; Rate 0.0320 kg/ha): 0.0; SAGPY herbicidal effect rating (Sagittaria pygmaea, L.; Rate 0.0620 kg/ha): 0.0; SAGPY herbicidal effect rating (Sagittaria pygmaea, L.; Rate 0.1250 kg/ha): 3.0; SAGPY herbicidal effect rating (Sagittaria pygmaea, L.; Rate 0.2500 kg/ha): 9.0
C=Cc1nsc2ccc(-n3c(=O)cc(C(F)(F)F)n(C)c3=O)cc12 [Example 276, 2,4(1H,3H)-Pyrimidinedione, 1-methyl-6-(trifluoromethyl)-3-(3-vinyl-1,2-benzisothiazol-5-yl)-] | 2.0 | 7.0 | 7.0 | 9.0 | 9.0 | 9.0 | 9.0 | 5.0 | 6.0 | 7.0 | 9.0 | 9.0 | 9.0 | 9.0 | 9.0 | 7.7 | 7.9 | 9.0 | 9.0 | 9.0 | CYPSE herbicidal effect rating ([1]; Rate 0.0320 kg/ha): 2.0; CYPSE herbicidal effect rating ([1]; Rate 0.1250 kg/ha): 8.0; MOOVA herbicidal effect rating ([2]; Rate 0.0320 kg/ha): 9.0; ORYSAT herbicidal effect rating ([3]; Rate 0.0320 kg/ha): 4.0; CYPIR herbicidal effect rating (Cyperus iria; Rate 0.0320 kg/ha): 8.0; ECHORC herbicidal effect rating ([4]; Rate 0.0320 kg/ha): 4.0; SAGPY herbicidal effect rating (Sagittaria pygmaea, L.; Rate 0.0320 kg/ha): 8.0; SAGPY herbicidal effect rating (Sagittaria pygmaea, L.; Rate 0.0620 kg/ha): 9.0; SAGPY herbicidal effect rating (Sagittaria pygmaea, L.; Rate 0.1250 kg/ha): 9.0; SAGPY herbicidal effect rating (Sagittaria pygmaea, L.; Rate 0.2500 kg/ha): 9.0
CO/N=C/c1nsc2ccc(-n3c(=O)cc(C(F)(F)F)n(C)c3=O)cc12 [Example 277, 1,2-Benzisothiazole-3-carboxaldehyde, 5-[3,6-dihydro-3-methyl-2,6-dioxo-4-(trifluoromethyl)-1(2H)-pyrimidinyl]-, 3-(O-methyloxime), (E)-] | 9.0 | 9.0 | 9.0 | 9.0 | 9.0 | 9.0 | 9.0 | 7.0 | 7.0 | 8.0 | 9.0 | 9.0 | 9.0 | 9.0 | 9.0 | 8.6 | 9.0 | 9.0 | 9.0 | 9.0 | CYPSE herbicidal effect rating ([1]; Rate 0.0320 kg/ha): 2.0; CYPSE herbicidal effect rating ([1]; Rate 0.1250 kg/ha): 9.0; MOOVA herbicidal effect rating ([2]; Rate 0.0320 kg/ha): 9.0; ORYSAT herbicidal effect rating ([3]; Rate 0.0320 kg/ha): 5.0; CYPIR herbicidal effect rating (Cyperus iria; Rate 0.0320 kg/ha): 9.0; ECHORC herbicidal effect rating ([4]; Rate 0.0320 kg/ha): 7.0; SAGPY herbicidal effect rating (Sagittaria pygmaea, L.; Rate 0.0320 kg/ha): 6.0; SAGPY herbicidal effect rating (Sagittaria pygmaea, L.; Rate 0.0620 kg/ha): 8.0; SAGPY herbicidal effect rating (Sagittaria pygmaea, L.; Rate 0.1250 kg/ha): 9.0; SAGPY herbicidal effect rating (Sagittaria pygmaea, L.; Rate 0.2500 kg/ha): 9.0
